This note sets out measurements from US12071434B2, “Heterocyclic compound” (Takeda Pharmaceutical Company Limited, priority 2018, dated 2024).

In test [1] the target is T1, human orexin type 2 receptor (Homo sapiens, UniProt O43614).
T1 construct: expressed in transfected cells
T1 sequence (O43614 1-444): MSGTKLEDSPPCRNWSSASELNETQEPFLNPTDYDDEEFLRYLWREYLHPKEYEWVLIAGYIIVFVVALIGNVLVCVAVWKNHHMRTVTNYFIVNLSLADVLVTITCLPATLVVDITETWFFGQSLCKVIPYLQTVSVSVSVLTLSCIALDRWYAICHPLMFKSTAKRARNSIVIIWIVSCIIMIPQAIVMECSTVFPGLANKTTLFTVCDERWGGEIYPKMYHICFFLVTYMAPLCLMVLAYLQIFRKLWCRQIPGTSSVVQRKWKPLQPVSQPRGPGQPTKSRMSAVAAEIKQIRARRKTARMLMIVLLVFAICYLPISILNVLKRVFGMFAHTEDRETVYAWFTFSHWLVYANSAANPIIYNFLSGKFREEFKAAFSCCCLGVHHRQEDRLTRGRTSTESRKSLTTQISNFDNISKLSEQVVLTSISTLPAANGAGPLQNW
The test is described as follows: Measurement of orexin type 2 receptor agonist activity (calcium fluorescence, Fluo-4 AM, FDSS) in CHO cells forcibly expressing human OX2 receptor. Format: cell-based. As to conditions: test compound 3 μM, DMSO = 0%, orexin A (human) 10 nM = 100%. The method in brief:
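CHO-dhfr cells stably expressing human OX2 receptor, loaded with Fluo-4 AM plus probenecid for 30 min at 37 °C, then 30 min at room temperature. Calcium fluorescence read for about 2 min 40 s after compound addition. Activity (%) scaled between DMSO (0%) and 10 nM human orexin A (100%).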

For another test, the system named is mice (C57BL/6J mice). Kind of test: Evaluation of wake-promoting effects by EEG and EMG in mice. It is filed as in vivo. As to conditions: 30 mg/kg, p.o., at zeitgeber time 5; time spent in wakefulness for 2 h after administration; male mice. How it is done: The wake-promoting effects were evaluated by measuring the electroencephalogram (EEG) and electromyogram (EMG) in […] mice (C57BL/6Jmice, CLEA Japan Inc., Tokyo, Japan). Under pentobarbital sodium anesthesia (50 mg/kg, intraperitoneal, Somnopentyl®, Kyoritsu Seiyaku, Tokyo, Japan), […] male […] mice were surgically implanted with EEG electrode and EMG electrode. Bilateral EEG leads (Biotex, Kyoto, Japan) were stereotaxically positioned at the parietal area and secured to the cranium with stainless-steel screws in contact with the dura. Bilateral EMG leads (Biotex) were implanted into the back cervical muscles. After at least a 1-week recovery period in home cages, the […] mice were habituated to the recording chamber located in an electrically shielded soundproof room. After habituated, the cortical EEG and EMG signals were recorded using VitalRecorder® (Kissei Comtec Co., Ltd., Nagano, Japan). The signals were automatically scored in 4 sec epochs by a sleep scoring system (SleepSign®, Kissei Comtec Co., Ltd.). Test compound (30 mg/kg, Table 3X-1) dissolved in a mixed solution containing 10% DMSO, 10% Cremophor EL, 20% PEG400 and 60% H2O, or vehicle (i.e., a mixed solution containing 10% DMSO, 10% Cremophor EL, 20% PEG400 and 60% H2O) was administered orally (p.o.) to the […] mice at zeitgeber time 5 in a volume of 10 mL/kg. The EEG and EMG recordings were performed for 2 h after the compound administration. The time spent in wakefulness for 2 h after administration (% of vehicle treatment) was calculated by using SleepSign.

As for `CC(C)n1cnc2c(c1=O)[C@@H](Cc1cccc(-c3cc(F)cc(F)c3)c1F)[C@@H](NS(=O)(=O)C1CC1)CC2` [Example 195, N-{(5R,6S)-4-oxo-3-(propan-2-yl)-5-[(2,3′,5′-trifluoro[1,1′-biphenyl]-3-yl)methyl]-3,4,5,6,7,8-hexahydroquinazolin-6-yl}cyclopropanesulfonamide], in test [1], the “0X2R agonist activity (3 μM, %)” value was found to be 94%. Also, the “Wakefulness time (% of vehicle treatment) (Mean, n = 3)” value in the test on mice (C57BL/6J mice) is reported as 183.08 % of vehicle treatment.

As for `CC(C)n1cnc2c(c1=O)[C@@H](Cc1cccc(-c3cccc(F)c3)c1F)[C@@H](NS(=O)(=O)C1CC1)CC2` [Example 172, N-[(5R,6S)-5-[(2,3′-difluoro[1,1′-biphenyl]-3-yl)methyl]-4-oxo-3-(propan-2-yl)-3,4,5,6,7,8-hexahydroquinazolin-6-yl]cyclopropanesulfonamide], in test [1], the “0X2R agonist activity (3 μM, %)” value worked out at 95%. Also, the “Wakefulness time (% of vehicle treatment) (Mean, n = 3)” value in the test on mice (C57BL/6J mice) is recorded as 201.32 % of vehicle treatment.
